Laboratory results as given in PubChem BioAssay (NCI).
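Each compound was tested at five concentrations against cells in 96-well plates for 48 hours. GI50 marks 50% less growth. TGI is the concentration that stops growth completely.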

Key:
Assay in all cases: NCI anticancer screen, dose series, 48 h
[1] = tested on: HCT-116 colon
[2] = tested on: LOX IMVI melanoma
[3] = tested on: SN12C renal
[4] = tested on: HOP-62 NSCLC
[5] = tested on: RPMI-8226 leukemia
[6] = tested on: MCF7 breast
[7] = tested on: T-47D breast
[8] = tested on: MDA-MB-435
[9] = tested on: UACC-62 melanoma
[10] = tested on: HCT-15 colon
[11] = tested on: KM12 colon
[12] = tested on: MALME-3M melanoma
[13] = tested on: A549 NSCLC
[14] = tested on: K-562 leukemia
[15] = tested on: UO-31 renal
[16] = tested on: COLO 205 colon
[17] = tested on: OVCAR-5 ovarian
[18] = tested on: HT29 colon
[19] = tested on: NCI-H460 lung
[20] = tested on: MDA-MB-231 breast
[21] = tested on: NCI-H522 lung
[22] = tested on: BT-549 breast
[23] = tested on: HS 578T breast
[24] = tested on: DU-145 prostate
[25] = tested on: OVCAR-3 ovarian
[26] = tested on: SK-MEL-2 melanoma
[27] = tested on: A498 renal
[28] = tested on: SK-MEL-28 melanoma
[29] = tested on: IGROV1 ovarian
[30] = tested on: 786-0 renal
[31] = tested on: HOP-92 NSCLC
[32] = tested on: SR leukemia
[33] = tested on: SK-OV-3 ovarian
[34] = tested on: SNB-19 CNS
[35] = tested on: MOLT-4 leukemia
[36] = tested on: UACC-257 melanoma
[37] = tested on: PC-3 prostate
[38] = tested on: RXF 393 renal
[39] = tested on: SW-620 colon
[40] = tested on: SNB-75 CNS
[41] = tested on: EKVX NSCLC
[42] = tested on: OVCAR-8 ovarian
[43] = tested on: HL-60(TB) leukemia
[44] = tested on: SF-295 CNS
[45] = tested on: HCC-2998 colon
[46] = tested on: NCI-H23 lung
[47] = tested on: SK-MEL-5 melanoma
[48] = tested on: CCRF-CEM leukemia
[49] = tested on: OVCAR-4 ovarian
[50] = tested on: ACHN renal
[51] = tested on: SF-268 CNS
[52] = tested on: M14 melanoma
[53] = tested on: SF-539 CNS
[54] = tested on: NCI-H226 lung
[55] = tested on: U251 CNS
[56] = tested on: CAKI-1 renal
[57] = tested on: NCI/ADR-RES ovarian
[58] = tested on: TK-10 renal

`C=C1C(=O)O[C@H]2[C@H]1CC/C(Cn1cc(-c3cc(C(F)(F)F)cc(C(F)(F)F)c3)nn1)=C\CC[C@@]1(C)O[C@@H]21` was tested, and the GI50 [1] was 153 nM, the TGI [1] was 312 nM and the GI50 [2] was 156 nM. For the same molecule, the TGI [2] was 298 nM, the GI50 [3] was 702 nM and the TGI [3] was 2380 nM. It also gave a GI50 [4] of 1560 nM, a TGI [4] of 3310 nM and a GI50 [5] of 221 nM. For the same molecule, the TGI [5] was 522 nM, the GI50 [6] was 198 nM and the TGI [6] was 1190 nM. The GI50 [7] was 330 nM, the TGI [7] was 1620 nM and the GI50 [8] was 743 nM. For the same molecule, the TGI [8] was 2080 nM, the GI50 [9] was 344 nM and the TGI [9] was 1380 nM. For the same molecule, the GI50 [10] was 191 nM, the TGI [10] was 454 nM and the GI50 [11] was 1040 nM. The TGI [11] was 2530 nM, the GI50 [12] was 521 nM and the TGI [12] was 2160 nM. The GI50 [13] was 1360 nM, the TGI [13] was 3010 nM and the GI50 [14] was 238 nM. It also gave a TGI [14] of 601 nM, a GI50 [15] of 382 nM and a TGI [15] of 1580 nM. It also gave a GI50 [16] of 141 nM, a TGI [16] of 364 nM and a GI50 [17] of 1100 nM. The TGI [17] was 2480 nM, the GI50 [18] was 190 nM and the TGI [18] was 486 nM. For the same molecule, the GI50 [19] was 1220 nM, the TGI [19] was 2670 nM and the GI50 [20] was 333 nM. It also gave a TGI [20] of 1060 nM, a GI50 [21] of 122 nM and a TGI [21] of 270 nM. It also gave a GI50 [22] of 178 nM, a TGI [22] of 509 nM and a GI50 [23] of 1030 nM. It also gave a TGI [23] of 4230 nM, a GI50 [24] of 726 nM and a TGI [24] of 2020 nM. It also gave a GI50 [25] of 152 nM, a TGI [25] of 358 nM and a GI50 [26] of 348 nM. It also gave a TGI [26] of 1490 nM, a GI50 [27] of 437 nM and a TGI [27] of 1710 nM. It also gave a GI50 [28] of 465 nM, a TGI [28] of 1650 nM and a GI50 [29] of 841 nM. It also gave a TGI [29] of 2340 nM, a GI50 [30] of 163 nM and a TGI [30] of 311 nM. The GI50 [31] was 344 nM, the TGI [31] was 1440 nM and the GI50 [32] was 103 nM. For the same molecule, the TGI [32] was 444 nM, the GI50 [33] was 1860 nM and the TGI [33] was 3430 nM. The GI50 [34] was 1710 nM, the TGI [34] was 3580 nM and the GI50 [35] was 191 nM. The TGI [35] was 603 nM, the GI50 [36] was 1460 nM and the TGI [36] was 2910 nM. For the same molecule, the GI50 [37] was 832 nM, the TGI [37] was 2330 nM and the GI50 [38] was 27.4 nM. The TGI [38] was 102 nM, the GI50 [39] was 190 nM and the TGI [39] was 399 nM. The GI50 [40] was 1260 nM, the TGI [40] was 2520 nM and the GI50 [41] was 1500 nM. The TGI [41] was 2950 nM, the GI50 [42] was 880 nM and the TGI [42] was 2200 nM. It also gave a GI50 [43] of 190 nM, a TGI [43] of 484 nM and a GI50 [44] of 1190 nM. The TGI [44] was 2530 nM, the GI50 [45] was 1170 nM and the TGI [45] was 2510 nM. It also gave a GI50 [46] of 1120 nM, a TGI [46] of 2650 nM and a GI50 [47] of 1470 nM. The TGI [47] was 2780 nM, the GI50 [48] was 169 nM and the TGI [48] was 821 nM. It also gave a GI50 [49] of 508 nM, a TGI [49] of 1800 nM and a GI50 [50] of 160 nM. The TGI [50] was 325 nM, the GI50 [51] was 1080 nM and the TGI [51] was 2490 nM. For the same molecule, the GI50 [52] was 357 nM, the TGI [52] was 1550 nM and the GI50 [53] was 178 nM. For the same molecule, the TGI [53] was 422 nM, the GI50 [54] was 1650 nM and the TGI [54] was 3560 nM. The GI50 [55] was 1440 nM and the TGI [55] was 2760 nM.
`COc1ccc(-n2nnnc2-c2c[nH]c3c(F)cc(F)cc23)cc1` showed a GI50 [1] greater than 100000 nM, a TGI [1] greater than 100000 nM and a GI50 [2] of 86600 nM. The TGI [2] was greater than 100000 nM, the GI50 [3] was 86300 nM and the TGI [3] was greater than 100000 nM. For the same molecule, the GI50 [4] was 37500 nM, the TGI [4] was greater than 100000 nM and the GI50 [5] was greater than 100000 nM. The TGI [5] was greater than 100000 nM, the GI50 [6] was greater than 100000 nM and the TGI [6] was greater than 100000 nM. For the same molecule, the GI50 [7] was greater than 100000 nM, the TGI [7] was greater than 100000 nM and the GI50 [8] was greater than 100000 nM. For the same molecule, the TGI [8] was greater than 100000 nM, the GI50 [9] was greater than 100000 nM and the TGI [9] was greater than 100000 nM. The GI50 [10] was greater than 100000 nM, the TGI [10] was greater than 100000 nM and the GI50 [11] was greater than 100000 nM. It also gave a TGI [11] greater than 100000 nM, a GI50 [12] greater than 100000 nM and a TGI [12] greater than 100000 nM. It also gave a GI50 [13] greater than 100000 nM, a TGI [13] greater than 100000 nM and a GI50 [56] greater than 100000 nM. For the same molecule, the TGI [56] was greater than 100000 nM, the GI50 [14] was greater than 100000 nM and the TGI [14] was greater than 100000 nM. It also gave a GI50 [15] of 54000 nM, a TGI [15] greater than 100000 nM and a GI50 [16] greater than 100000 nM. The TGI [16] was greater than 100000 nM, the GI50 [17] was greater than 100000 nM and the TGI [17] was greater than 100000 nM. For the same molecule, the GI50 [18] was greater than 100000 nM, the TGI [18] was greater than 100000 nM and the GI50 [19] was greater than 100000 nM. The TGI [19] was greater than 100000 nM, the GI50 [20] was 27100 nM and the TGI [20] was greater than 100000 nM. The GI50 [21] was 86000 nM, the TGI [21] was greater than 100000 nM and the GI50 [22] was greater than 100000 nM. The TGI [22] was greater than 100000 nM, the GI50 [23] was greater than 100000 nM and the TGI [23] was greater than 100000 nM. For the same molecule, the GI50 [24] was greater than 100000 nM, the TGI [24] was greater than 100000 nM and the GI50 [25] was greater than 100000 nM. It also gave a TGI [25] greater than 100000 nM, a GI50 [26] greater than 100000 nM and a TGI [26] greater than 100000 nM. The GI50 [27] was 36500 nM, the TGI [27] was greater than 100000 nM and the GI50 [28] was greater than 100000 nM. For the same molecule, the TGI [28] was greater than 100000 nM, the GI50 [29] was greater than 100000 nM and the TGI [29] was greater than 100000 nM. For the same molecule, the GI50 [30] was 31500 nM, the TGI [30] was greater than 100000 nM and the GI50 [33] was 34700 nM. The TGI [33] was greater than 100000 nM, the GI50 [34] was 75500 nM and the TGI [34] was greater than 100000 nM. The GI50 [35] was greater than 100000 nM, the TGI [35] was greater than 100000 nM and the GI50 [36] was greater than 100000 nM. For the same molecule, the TGI [36] was greater than 100000 nM, the GI50 [57] was 40600 nM and the TGI [57] was greater than 100000 nM. For the same molecule, the GI50 [37] was greater than 100000 nM, the TGI [37] was greater than 100000 nM and the GI50 [38] was 16200 nM. It also gave a TGI [38] of 45400 nM, a GI50 [39] greater than 100000 nM and a TGI [39] greater than 100000 nM. The GI50 [40] was 24300 nM, the TGI [40] was 76900 nM and the GI50 [58] was greater than 100000 nM. For the same molecule, the TGI [58] was greater than 100000 nM, the GI50 [41] was greater than 100000 nM and the TGI [41] was greater than 100000 nM. For the same molecule, the GI50 [42] was 39600 nM, the TGI [42] was greater than 100000 nM and the GI50 [43] was greater than 100000 nM. For the same molecule, the TGI [43] was greater than 100000 nM, the GI50 [44] was 24000 nM and the TGI [44] was 59600 nM. For the same molecule, the GI50 [45] was greater than 100000 nM, the TGI [45] was greater than 100000 nM and the GI50 [46] was greater than 100000 nM. The TGI [46] was greater than 100000 nM, the GI50 [47] was greater than 100000 nM and the TGI [47] was greater than 100000 nM. The GI50 [48] was greater than 100000 nM, the TGI [48] was greater than 100000 nM and the GI50 [49] was 55000 nM. The TGI [49] was greater than 100000 nM, the GI50 [50] was greater than 100000 nM and the TGI [50] was greater than 100000 nM. For the same molecule, the GI50 [51] was 40300 nM, the TGI [51] was greater than 100000 nM and the GI50 [52] was greater than 100000 nM. It also gave a TGI [52] greater than 100000 nM, a GI50 [53] of 52800 nM and a TGI [53] greater than 100000 nM. For the same molecule, the GI50 [54] was greater than 100000 nM, the TGI [54] was greater than 100000 nM and the GI50 [55] was 32200 nM. For the same molecule, the TGI [55] was greater than 100000 nM.
